The text below walks through data of ChEMBL document CHEMBL1201862, “PubChem BioAssay data set” (2004).

Among the test systems are MOLT-4; NCI-H23; OVCAR-8; 786-0; NCI-H522; SNB-75; SF-539; U-251; K562; UACC-62; NCI-H226; OVCAR-5; IGROV-1; A498; SR; OVCAR-3; CAKI-1; HCT-15; HCC 2998.
Assay in all cases: DTP human tumour cell line panel, 48 h

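Cultured in 96-well plates, cells were exposed to test compound for 48 hours across five concentrations. Abbreviation: GI50, concentration required for 50% inhibition of growth.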 The source made the active and inactive calls. No stated cut-off is given here; in the data, active = GI50 up to about 1.1 µM and inactive = higher. Some results are limits rather than exact numbers.

For orientation: GI50 means the concentration that inhibits growth by half.

Consider `Cn1ccnc1CCc1c(Cl)cccc1Cl`, for which the GI50 in the experiment with MOLT-4, with NCI-H23, in the experiment on OVCAR-8, in the experiment with 786-0, in the experiment on NCI-H522 and with SNB-75 was > 100 µM (inactive) throughout. Further, the GI50 in the experiment on SF-539, in the experiment with U-251, in the experiment with K562, with UACC-62, in the experiment on NCI-H226 and in the experiment on OVCAR-5 was > 100 µM (inactive) throughout. In addition, the GI50 in the experiment on IGROV-1 was > 100 µM (inactive); in the experiment with A498, > 100 µM (inactive); in the experiment with SR it was > 100 µM (inactive); in the experiment with OVCAR-3 it was > 100 µM (inactive); with CAKI-1 it was > 100 µM (inactive); in the experiment with HCT-15, greater than 100 µM.
As to `CC(=O)OCCCCN1C(=O)CSc2ccccc21`, the GI50 was > 100 µM (inactive) with MOLT-4; > 10 µM (inactive) in the experiment with 786-0; > 100 µM (inactive) in the experiment on NCI-H522; > 100 µM (inactive) in the experiment on SNB-75; > 100 µM (inactive) with SF-539; > 100 µM (inactive) in the experiment on U-251. Moreover, the GI50 in the experiment on UACC-62, with OVCAR-5, with IGROV-1, in the experiment with A498, in the experiment with SR and with OVCAR-3 was > 100 µM (inactive) in each case. Further, the GI50 in the experiment on CAKI-1 is > 100 µM (inactive); with HCT-15, greater than 100 µM.
Regarding `COc1ccc([N+]2=NC(c3ccc([N+](=O)[O-])cc3)=NN(c3ccccc3)C2)cc1.[O-][Cl+3]([O-])([O-])[O-]`, the GI50 in the experiment on MOLT-4 is 31.8 µM (inactive); in the experiment with NCI-H23, > 100 µM (inactive); with OVCAR-8, > 100 µM (inactive); in the experiment on 786-0, > 100 µM (inactive); in the experiment with NCI-H522, 3.65 µM (inactive); in the experiment on U-251, 36.1 µM (inactive). The GI50 in the experiment on HCC 2998 was > 100 µM (inactive); in the experiment with K562, 28.1 µM (inactive); in the experiment with NCI-H226, > 100 µM (inactive); in the experiment on OVCAR-5, > 100 µM (inactive); with IGROV-1 it was 33.2 µM (inactive); in the experiment on A498 it was > 100 µM (inactive). The values for the GI50 in the experiment with SR, in the experiment on OVCAR-3 and in the experiment with HCT-15 were 44.2 µM (inactive), 79.4 µM (inactive) and 41.9 µM, respectively.
For the molecule `CC(C)C1CC=NN1C(=O)OC(C)(C)C` (stereo unspecified), the GI50 with MOLT-4, with NCI-H23, in the experiment on OVCAR-8, in the experiment on 786-0, in the experiment with NCI-H522 and with SNB-75 was > 100 µM (inactive) throughout. Further, the GI50 in the experiment on SF-539, in the experiment on HCC 2998, in the experiment on K562, in the experiment with UACC-62, with NCI-H226 and with OVCAR-5 was > 100 µM (inactive) throughout. The GI50 in the experiment with IGROV-1 is > 100 µM (inactive); in the experiment with A498, > 100 µM (inactive); in the experiment with SR, > 100 µM (inactive); in the experiment with OVCAR-3, > 100 µM (inactive); in the experiment with CAKI-1 it was > 100 µM (inactive); in the experiment with HCT-15, greater than 100 µM.
In the case of `O=NN(CCCl)C(=O)N[C@H]1CC[C@H](CC(=O)O)CC1`, the GI50 with MOLT-4 was 11.9 µM (inactive); with NCI-H23 it was > 89.1 µM (inactive); with OVCAR-8, > 100 µM (inactive); in the experiment on 786-0, 44 µM (inactive); with NCI-H522 it was 28 µM (inactive); in the experiment on SNB-75 it was 50.4 µM (inactive). For the same molecule, the GI50 with SF-539 was 26.1 µM (inactive); in the experiment with U-251, 33.2 µM (inactive); with HCC 2998, > 100 µM (inactive); in the experiment on K562, 60.3 µM (inactive); with UACC-62 it was 15.4 µM (inactive); in the experiment on NCI-H226, > 100 µM (inactive). Moreover, the GI50 with OVCAR-5 was > 100 µM (inactive); in the experiment with IGROV-1, > 100 µM (inactive); with A498 it was > 100 µM (inactive); with SR it was 32.2 µM (inactive); in the experiment on OVCAR-3 it was > 100 µM (inactive); with CAKI-1, > 100 µM (inactive). This molecule yielded a GI50 in the experiment on HCT-15 greater than 100 µM.
`COc1cc(/C=C2/SC(c3ccccc3)N(c3cccc(NC(C)=O)c3)C2=O)cc(OC)c1OC` (stereo unspecified): the GI50 in the experiment on MOLT-4 is 31.3 µM (inactive); in the experiment on NCI-H23 it was 44.9 µM (inactive); in the experiment with OVCAR-8 it was 52.6 µM (inactive); with 786-0, 81.8 µM (inactive); in the experiment on NCI-H522, 18.2 µM (inactive); in the experiment with SF-539, 49.3 µM (inactive). For the same molecule, the GI50 in the experiment on HCC 2998 is > 100 µM (inactive); in the experiment on K562, 35.6 µM (inactive); in the experiment with UACC-62, 50.5 µM (inactive); in the experiment on NCI-H226, 62.5 µM (inactive); in the experiment with OVCAR-5, > 100 µM (inactive); in the experiment on A498, > 100 µM (inactive). Further, the GI50 is 23.4 µM (inactive) with SR, 60.1 µM (inactive) in the experiment on OVCAR-3, > 100 µM (inactive) with CAKI-1 and 46.9 µM in the experiment on HCT-15.
Turning to `CCOC(=O)c1c[nH]c2c(ccc3nn(C)nc32)c1=O`, the GI50 in the experiment on MOLT-4, in the experiment on NCI-H23, in the experiment on OVCAR-8, with 786-0, in the experiment on NCI-H522 and with SNB-75 was > 100 µM (inactive) in each case. The GI50 is 25.8 µM (inactive) in the experiment on U-251; > 100 µM (inactive) with HCC 2998; 49.7 µM (inactive) in the experiment on K562; > 100 µM (inactive) with UACC-62; > 100 µM (inactive) with NCI-H226; > 100 µM (inactive) in the experiment with OVCAR-5. Also, the GI50 is > 100 µM (inactive) with IGROV-1; > 100 µM (inactive) in the experiment on A498; 84.1 µM (inactive) in the experiment on SR; > 100 µM (inactive) in the experiment on OVCAR-3; > 100 µM (inactive) in the experiment on CAKI-1; 41 µM in the experiment on HCT-15.
In the case of `CC[C@H]1C=CCC[C@@]2(C[C@@H]3CC[C@H]4[C@@H](C(=O)OCCCCCCCCCCCCCCCC(=O)N(CCCNC(C)=O)C[C@H](CCNC(C)=O)OC(C)=O)[C@@]5(CCC[C@@H](C)O5)NC(=[N+]34)N2)O1`, the GI50 in the experiment with MOLT-4 was 1.23 µM (inactive); with NCI-H23 it was 1.58 µM (inactive); in the experiment with OVCAR-8, 1.4 µM (inactive); in the experiment on 786-0 it was 1.98 µM (inactive); in the experiment with NCI-H522, 1.24 µM (inactive); in the experiment on SF-539, 1.48 µM (inactive). Besides, the GI50 in the experiment on U-251 was 0.914 µM (active); with HCC 2998, 1.26 µM (inactive); in the experiment on K562, 0.708 µM (active); with UACC-62, 1.85 µM (inactive); in the experiment on NCI-H226, 1.41 µM (inactive); with OVCAR-5 it was 1.51 µM (inactive). In addition, the GI50 was 1.31 µM (inactive) in the experiment on IGROV-1; 1.83 µM (inactive) in the experiment with A498; 1.56 µM (inactive) in the experiment with SR; 0.787 µM (active) in the experiment with OVCAR-3; 2.22 µM (inactive) in the experiment with CAKI-1; 1.7 µM with HCT-15.
